Laboratory results from patent US20220081444A1, “6,7-DIHYDRO-4H-PYRAZOLO[1,5-A]PYRAZINE INDOLE-2-CARBOXAMIDES ACTIVE AGAINST THE HEPATITIS B VIRUS (HBV)” (AiCuris GmbH & Co. KG, priority 2018, published 2022).

Test system: HBV
Details: Hepatitis B virus, HePAD38, 144 h, read-out: Cell Activity (EC50)

Q: Which EC50 does the source give for O=C(Nc1cc2n(n1)CCN(C(=O)c1cc3ccccc3[nH]1)C2)C1CCNC(C(F)(F)F)C1 (centres unmarked) [Example 61, N-[5-(1H-indole-2-carbonyl)-4H,5H,6H,7H-pyrazolo[1,5-a]pyrazin-2-yl]-2-(trifluoromethyl)piperidine-4-carboxamide] here?
A: Its EC50 is < 1 µM.

Q: Which EC50 does the source give for CC(C)(CO)CNc1cc2n(n1)CCN(C(=O)c1cc3ccccc3[nH]1)C2 [Example 59, 3-{[5-(1H-indole-2-carbonyl)-4H,5H,6H,7H-pyrazolo[1,5-a]pyrazin-2-yl]amino}-2,2-dimethylpropan-1-ol] here?
A: Its EC50 is < 1 µM.

Q: O=C(Nc1cc2n(n1)CCN(C(=O)c1cc3ccccc3[nH]1)C2)C1CCN(CCO)CC1 [Example 62, 1-(2-hydroxyethyl)-N-[5-(1H-indole-2-carbonyl)-4H,5H,6H,7H-pyrazolo[1,5-a]pyrazin-2-yl]piperidine-4-carboxamide] was tested. Which EC50 did it give?
A: The EC50 was 1 to 10 µM.

Q: O=C(c1cc2c(Cl)cccc2[nH]1)N1CCn2nc(NS(=O)(=O)C3CC3)cc2C1 [Example 37, N-[5-(4-chloro-1H-indole-2-carbonyl)-4H,5H,6H,7H-pyrazolo[1,5-a]pyrazin-2-yl]cyclopropanesulfonamide] was tested. Which EC50 did it give?
A: Its EC50 is < 1 µM.

Q: For O=C(Nc1cc2n(n1)CCN(C(=O)c1cc3ccccc3[nH]1)C2)C1CCn2ccnc2C1 (centres unmarked) [Example 68, N-[5-(1H-indole-2-carbonyl)-4H,5H,6H,7H-pyrazolo[1,5-a]pyrazin-2-yl]-5H,6H,7H,8H-imidazo[1,2-a]pyridine-7-carboxamide], which EC50 is on record?
A: Its EC50 is < 1 µM.

Q: For COC1CCC(Nc2cc3n(n2)CCN(C(=O)c2cc4ccccc4[nH]2)C3)CC1 (centres unmarked) [Example 80, 5-(1H-indole-2-carbonyl)-N-(4-methoxycyclohexyl)-4H,5H,6H,7H-pyrazolo[1,5-a]pyrazin-2-amine], which EC50 is on record?
A: Its EC50 is < 1 µM.

Q: COCC1(S(=O)(=O)Nc2cc3n(n2)CCN(C(=O)c2cc4ccccc4[nH]2)C3)CC1 [Example 52, N-[5-(1H-indole-2-carbonyl)-4H,5H,6H,7H-pyrazolo[1,5-a]pyrazin-2-yl]-1-(methoxymethyl)cyclopropane-1-sulfonamide] was tested. Which EC50 did it give?
A: Its EC50 is < 1 µM.

Q: For O=C(c1cc2ccccc2[nH]1)N1CCn2nc(N[C@H]3C[C@H](O)C3)cc2C1 [Example 76, (1r,3r)-3-{[5-(1H-indole-2-carbonyl)-4H,5H,6H,7H-pyrazolo[1,5-a]pyrazin-2-yl]amino}cyclobutan-1-ol], which EC50 is on record?
A: The EC50 was < 1 µM.

Q: CC1Cn2nc(N)cc2CN1C(=O)c1cc2ccccc2[nH]1 (centres unmarked) [Example 16, 5-(1H-indole-2-carbonyl)-6-methyl-4H,5H,6H,7H-pyrazolo[1,5-a]pyrazin-2-amine] was tested. Which EC50 did it give?
A: Its EC50 is < 1 µM.

Q: CC(C)S(=O)(=O)Nc1cc2n(n1)CCN(C(=O)c1cc3ccccc3[nH]1)C2 [Example 47, N-[5-(1H-indole-2-carbonyl)-4H,5H,6H,7H-pyrazolo[1,5-a]pyrazin-2-yl]propane-2-sulfonamide] was tested. Which EC50 did it give?
A: Its EC50 is < 1 µM.

Q: For COCC1(CNc2cc3n(n2)CCN(C(=O)c2cc4ccccc4[nH]2)C3)CC1 [Example 54, 5-(1H-indole-2-carbonyl)-N-{[1-(methoxymethyl)cyclopropyl]methyl}-4H,5H,6H,7H-pyrazolo[1,5-a]pyrazin-2-amine], which EC50 is on record?
A: Its EC50 is < 1 µM.

Q: With O=C(c1cc2c(Cl)cc(F)cc2[nH]1)N1CCn2nc(NS(=O)(=O)C3CC3)cc2C1 [Example 38, N-[5-(4-chloro-6-fluoro-1H-indole-2-carbonyl)-4H,5H,6H,7H-pyrazolo[1,5-a]pyrazin-2-yl]cyclopropanesulfonamide] as the compound, how does the EC50 read?
A: The EC50 was < 1 µM.

Q: Which EC50 does the source give for Cc1nc(S(=O)(=O)Nc2cc3n(n2)CCN(C(=O)c2cc4ccccc4[nH]2)C3)cn1C [Example 48, [5-(1H-indole-2-carbonyl)-4H,5H,6H,7H-pyrazolo[1,5-a]pyrazin-2-yl]-1,2-dimethyl-1H-imidazole-4-sulfonamide] here?
A: Its EC50 is 1 to 10 µM.

Q: For CS(=O)(=O)N1CCC(C(=O)Nc2cc3n(n2)CCN(C(=O)c2cc4ccccc4[nH]2)C3)CC1 [Example 64, N-[5-(1H-indole-2-carbonyl)-4H,5H,6H,7H-pyrazolo[1,5-a]pyrazin-2-yl]-1-methanesulfonylpiperidine-4-carboxamide], which EC50 is on record?
A: The EC50 was < 1 µM.
